From US10212936B2, “Molecules having pesticidal utility, and intermediates, compositions, and processes, related thereto” (priority 2014, dated 2019) come the findings set out here.

Common to all, as to type: in vivo
Data set [1] concerns Cabbage Looper (Trichoplusia ni, TRIPNI). As to the kind of experiment: Bioassay on Cabbage Looper (CL), 128-well diet tray assay. Particulars: 168 h, 50 μg/cm^2 on artificial diet, second instar larvae, five to seven days, 25° C., read-out: CL % Control (or Mortality) rating. The procedure:
(§1) Example A: Bioassays on Beet Armyworm (Spodoptera exigua, LAPHEG) (“BAW”), Corn Earworm (Helicoverpa zea, HELIZE) (“CEW”), and Cabbage Looper (Trichoplusia ni, TRIPNI) (“CL”)
(§2) Certain molecules disclosed in this document were tested against BAW, CEW, and CL using procedures described in the following examples. In the reporting of the results, the “BAW, CEW, & CL Rating Table” was used (See Table Section).
Bioassays on CL were conducted using a 128-well diet tray assay. one to five second instar CL larvae were placed in each well (3 mL) of the diet tray that had been previously filled with 1 mL of artificial diet to which 50 μg/cm^2 of the test molecule (dissolved in 50 μL of 90:10 acetone-water mixture) had been applied (to each of eight wells) and then allowed to dry. Trays were covered with a clear self-adhesive cover and held at 25° C., 14:10 light-dark for five to seven days. Percent mortality was recorded for the larvae in each well; activity in the eight wells was then averaged. The results are indicated in the table entitled “Table ABC: Biological Results” (See Table Section).

For data set [2], the system named is Beet Armyworm (Spodoptera exigua, LAPHEG). Nature of the data set: Bioassay on Beet Armyworm (BAW), 128-well diet tray assay. Particulars: 168 h, 50 μg/cm^2 on artificial diet, second instar larvae, five to seven days, 25° C., read-out: BAW % Control (or Mortality) rating. The procedure:
as §1, §2
Bioassays on BAW were conducted using a 128-well diet tray assay. one to five second instar BAW larvae were placed in each well (3 mL) of the diet tray that had been previously filled with 1 mL of artificial diet to which 50 μg/cm^2 of the test molecule (dissolved in 50 μL of 90:10 acetone-water mixture) had been applied (to each of eight wells) and then allowed to dry. Trays were covered with a clear self-adhesive cover and held at 25° C., 14:10 light-dark for five to seven days. Percent mortality was recorded for the larvae in each well; activity in the eight wells was then averaged. The results are indicated in the table entitled “Table ABC: Biological Results” (See Table Section).

Data set [3] concerns Yellow Fever Mosquito (Aedes aegypti, AEDSAE). Nature of the data set: Bioassay on Yellow Fever Mosquito (YFM) larvae, 96-well plate. To be noted: about 1 day-old larvae, 4000 ppm DMSO master plate diluted, graded after 3 days. The procedure: Example C: Bioassays on Yellow Fever Mosquito (Aedes aegypti, AEDSAE) (“YFM”)
Certain molecules disclosed in this document were tested against YFM using procedures described in the following paragraph. In the reporting of the results, the “YFM Rating Table” was used (See Table Section).
Master plates containing 400 μg of a molecule dissolved in 100 μL of dimethyl sulfoxide (DMSO) (equivalent to a 4000 ppm solution) are used. A master plate of assembled molecules contains 15 μL per well. To this plate, 135 μL of a 90:10 water:acetone mixture is added to each well. A robot (Biomek® NXP Laboratory Automation Workstation) is programmed to dispense 15 μL aspirations from the master plate into an empty 96-well shallow plate (“daughter” plate). There are 6 reps (“daughter” plates) created per master. The created daughter plates are then immediately infested with YFM larvae.
The day before plates are to be treated, mosquito eggs are placed in Millipore water containing liver powder to begin hatching (4 g. into 400 mL). After the daughter plates are created using the robot, they are infested with 220 μL of the liver powder/larval mosquito mixture (about 1 day-old larvae). After plates are infested with mosquito larvae, a non-evaporative lid is used to cover the plate to reduce drying. Plates are held at room temperature for 3 days prior to grading. After 3 days, each well is observed and scored based on mortality. The results are indicated in the table entitled “Table ABC: Biological Results” (See Table Section).

As usually defined, the mortality is the share of the test organisms that died. Take `Cc1cc(C)c(C2=C(NC(=O)NCCc3ccc(-c4ncn(-c5ccc(OC(F)(F)F)cc5)n4)cc3)OCC2=O)c(C)c1` [F53, 1-(3-mesityl-4-oxo-4,5-dihydrofuran-2-yl)-3-(4-(1-(4-(trifluoromethoxy)phenyl)-1H-1,2,4-triazol-3-yl)phenethyl)urea]: the figures for the mortality at 50 µg/cm2 in data set [1] and in data set [2] were 50 to 100% and 0 to 50%, respectively. The “YFM % Control (or Mortality) rating” value in data set [3] is “A (80-100)”.

With `O=C(NCCc1ccc(-c2ncn(-c3ccc(OC(F)(F)F)cc3)n2)cc1)Nc1scnc1-c1c(Cl)cccc1Cl` [F64, 1-(4-(2,6-Dichlorophenyl)thiazol-5-yl)-3-(4-(1-(4-(trifluoromethoxy)phenyl)-1H-1,2,4-triazol-3-yl)phenethyl)urea], the mortality at 50 µg/cm2 is 50 to 100% in data set [1] and 0% in data set [2]. Also, the “YFM % Control (or Mortality) rating” value in data set [3] was “A (80-100)”.

Turning to `O=C(NCCc1ccc(-c2ncn(-c3ccc(OC(F)(F)F)cc3)n2)cc1)Nc1ccnn1-c1ccccc1` [F51, 1-(1-phenyl-1H-pyrazol-5-yl)-3-(4-(1-(4-(trifluoromethoxy)phenyl)-1H-1,2,4-triazol-3-yl)phenethyl)urea], the mortality at 50 µg/cm2 in data set [1] and in data set [2] was 0% in each case.

Turning to `Cc1ccc(C)c(-c2c(NC(=O)NCCc3ccc(-c4ncn(-c5ccc(OC(F)(F)F)cc5)n4)cc3)on(C)c2=O)c1` [F57, 1-(4-(2,5-Dimethylphenyl)-2-methyl-3-oxo-2,3-dihydroisoxazol-5-yl)-3-(4-(1-(4-(trifluoromethoxy)phenyl)-1H-1,2,4-triazol-3-yl)phenethyl)urea], the mortality at 50 µg/cm2 in data set [1] and in data set [2] was 50 to 100% in each case. The “YFM % Control (or Mortality) rating” value in data set [3] is listed as “A (80-100)”.

On to `Cc1ccc(C)c(C2=C(NC(=O)NCCc3ccc(-c4ncn(-c5ccc(OC(F)(F)F)cc5)n4)cc3)OCC2=O)c1` [F56, 1-(3-(2,5-Dimethylphenyl)-4-oxo-4,5-dihydrofuran-2-yl)-3-(4-(1-(4-(trifluoromethoxy)phenyl)-1H-1,2,4-triazol-3-yl)phenethyl)urea], for which the mortality at 50 µg/cm2 in data set [1] and in data set [2] was 50 to 100% throughout. Also, the “YFM % Control (or Mortality) rating” value in data set [3] is listed as “A (80-100)”.

`CC(C)CC(C)c1sccc1NC(=O)Nc1ccc(-c2ncn(-c3ccc(OC(F)(F)F)cc3)n2)cc1` (stereo not drawn) [F8, 1-(2-(4-Methylpentan-2-yl)thiophen-3-yl)-3-(4-(1-(4-(trifluoromethoxy)phenyl)-1H-1,2,4-triazol-3-yl)phenyl)urea]: the mortality at 50 µg/cm2 is 50 to 100% in data set [1] and 0% in data set [2]. Moreover, the “YFM % Control (or Mortality) rating” value in data set [3] is “D (No activity noticed in this bioassay)”.

As to `COc1ccc(-c2ncsc2NC(=O)NCCc2ccc(-c3ncn(-c4ccc(OC(F)(F)F)cc4)n3)cc2)c(C)c1` [F63, 1-(4-(4-Methoxy-2-methylphenyl)thiazol-5-yl)-3-(4-(1-(4-(trifluoromethoxy)phenyl)-1H-1,2,4-triazol-3-yl)phenethyl)urea], the mortality at 50 µg/cm2 in data set [1] was 50 to 100%; in data set [2], 0%. For the same molecule, the “YFM % Control (or Mortality) rating” value in data set [3] is “A (80-100)”.

As for `CCc1ccccc1-c1ncsc1NC(=O)Nc1ccc(-c2ncn(-c3ccc(OC(F)(F)F)cc3)n2)cc1` [F49, 1-(4-(2-ethylphenyl)thiazol-5-yl)-3-(4-(1-(4-(trifluoromethoxy)phenyl)-1H-1,2,4-triazol-3-yl)phenyl)urea], the mortality at 50 µg/cm2 in data set [1] and in data set [2] was 50 to 100% each time.

On to `Cc1cc(C)c(-c2c(NC(=O)NCCc3ccc(-c4ncn(-c5ccc(OC(F)(F)F)cc5)n4)cc3)on(C)c2=O)c(C)c1` [F59, 1-(4-Mesityl-2-methyl-3-oxo-2,3-dihydroisoxazol-5-yl)-3-(4-(1-(4-(trifluoromethoxy)phenyl)-1H-1,2,4-triazol-3-yl)phenethyl)urea], for which the mortality at 50 µg/cm2 in data set [1] and in data set [2] was 50 to 100% each time. Further, the “YFM % Control (or Mortality) rating” value in data set [3] is “A (80-100)”.

Turning to `O=C(Nc1ccc(-c2ncn(-c3ccc(OC(F)(F)F)cc3)n2)cc1)Nc1ccnn1-c1ccccc1` [F10, 1-(1-Phenyl-1H-pyrazol-5-yl)-3-(4-(1-(4-(trifluoromethoxy)phenyl)-1H-1,2,4-triazol-3-yl)phenyl)urea], the mortality at 50 µg/cm2 in data set [1] and in data set [2] was 50 to 100% throughout. For the same molecule, the “YFM % Control (or Mortality) rating” value in data set [3] is listed as “D (No activity noticed in this bioassay)”.

Turning to `CCOC(=O)c1cnn(-c2ccc(Cl)cc2C)c1NC(=O)Nc1ccc(-c2ncn(-c3ccc(OC(F)(F)F)cc3)n2)cc1` [F2, Ethyl 1-(4-chloro-2-methylphenyl)-5-(3-(4-(1-(4-(trifluoromethoxy)phenyl)-1H-1,2,4-triazol-3-yl)phenyl)ureido)-1H-pyrazole-4-carboxylate], the mortality at 50 µg/cm2 in data set [1] and in data set [2] was 0% each time. Further, the “YFM % Control (or Mortality) rating” value in data set [3] was “D (No activity noticed in this bioassay)”.

`O=C(Nc1ccc(-c2ncn(-c3ccc(OC(F)(F)F)cc3)n2)cc1)Nc1nccn1-c1cc(Cl)cc(Cl)c1` [F28, 1-(1-(3,5-Dichlorophenyl)-1H-imidazol-2-yl)-3-(4-(1-(4-(trifluoromethoxy)phenyl)-1H-1,2,4-triazol-3-yl)phenyl)urea]: the mortality at 50 µg/cm2 in data set [1] is 0%; in data set [2] it was 50 to 100%.

Regarding `Cc1ccc(C)c(-c2ncsc2NC(=O)Nc2ccc(-c3ncn(-c4ccc(OC(F)(F)F)cc4)n3)cc2)c1` [F47, 1-(4-(2,5-Dimethylphenyl)thiazol-5-yl)-3-(4-(1-(4-(trifluoromethoxy)phenyl)-1H-1,2,4-triazol-3-yl)phenyl)urea], the mortality at 50 µg/cm2 in data set [1] and in data set [2] was 50 to 100% each time. Also, the “YFM % Control (or Mortality) rating” value in data set [3] is “A (80-100)”.

`Cc1ccc(C)c(-c2ncsc2NC(=O)NCCc2ccc(-c3ncn(-c4ccc(OC(F)(F)F)cc4)n3)cc2)c1` [F62, 1-(4-(2,5-Dimethylphenyl)thiazol-5-yl)-3-(4-(1-(4-(trifluoromethoxy)phenyl)-1H-1,2,4-triazol-3-yl)phenethyl)urea]: the mortality at 50 µg/cm2 in data set [1] was 50 to 100%; in data set [2], 0%. Also, the “YFM % Control (or Mortality) rating” value in data set [3] is “A (80-100)”.

Take `CC(C)c1ccccc1-c1c(NC(=O)NCCc2ccc(-c3ncn(-c4ccc(OC(F)(F)F)cc4)n3)cc2)on(C)c1=O` [F58, 1-(4-(2-Isopropylphenyl)-2-methyl-3-oxo-2,3-dihydroisoxazol-5-yl)-3-(4-(1-(4-(trifluoromethoxy)phenyl)-1H-1,2,4-triazol-3-yl)phenethyl)urea]: the mortality at 50 µg/cm2 in data set [1] and in data set [2] was 50 to 100% throughout. Further, the “YFM % Control (or Mortality) rating” value in data set [3] is given as “A (80-100)”.

As to `O=C(Nc1ccc(-c2ncn(-c3ccc(OC(F)(F)F)cc3)n2)cc1)Nc1nccn1-c1cccnc1` [F32, 1-(1-(Pyridin-3-yl)-1H-imidazol-2-yl)-3-(4-(1-(4-(trifluoromethoxy)phenyl)-1H-1,2,4-triazol-3-yl)phenyl)urea], the values for the mortality at 50 µg/cm2 in data set [1] and in data set [2] were 0 to 50% and 50 to 100%, respectively.

For the molecule `O=C(NCCc1ccc(-c2ncn(-c3ccc(OC(F)(F)F)cc3)n2)cc1)Nc1nccs1` [F50, 1-(thiazol-2-yl)-3-(4-(1-(4-(trifluoromethoxy)phenyl)-1H-1,2,4-triazol-3-yl)phenethyl)urea], the mortality at 50 µg/cm2 in data set [1] and in data set [2] was 0% each time. The “YFM % Control (or Mortality) rating” value in data set [3] is on record as “D (No activity noticed in this bioassay)”.

With `O=C(Nc1ccc(-c2ncn(-c3ccc(OC(F)(F)F)cc3)n2)cc1)Nc1scnc1-c1c(Cl)cccc1Cl` [F48, 1-(4-(2,6-Dichlorophenyl)thiazol-5-yl)-3-(4-(1-(4-(trifluoromethoxy)phenyl)-1H-1,2,4-triazol-3-yl)phenyl)urea], the “YFM % Control (or Mortality) rating” value in data set [3] is recorded as “A (80-100)”.
